According to ChEMBL document CHEMBL1201862, “PubChem BioAssay data set” (2004):
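Tested at 5 concentrations; 48 h exposure; 96-well plates; endpoints linearly interpolated, else capped at highest concentration. At the GI50, growth is halved.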 Calls of active or inactive are those of the source. Rule as the data show it: active = GI50 up to about 1.1 µM and inactive = higher.

What was measured:
Assay in all cases: NCI anticancer screen, dose series, 48 h
NCI-H226 = tested on: NCI-H226
U-251 = tested on: U-251
SR = tested on: SR
COLO 205 = tested on: COLO 205
M14 = tested on: M14
RPMI-8226 = tested on: RPMI-8226
UO-31 = tested on: UO-31
A498 = tested on: A498
OVCAR-5 = tested on: OVCAR-5
HOP-62 = tested on: HOP-62
CCRF-CEM = tested on: CCRF-CEM
XF498 = tested on: XF498
EKVX = tested on: EKVX
SNB-75 = tested on: SNB-75
NCI-H460 = tested on: NCI-H460
A549 = tested on: A549
SK-MEL-28 = tested on: SK-MEL-28
SW-620 = tested on: SW-620
SK-OV-3 = tested on: SK-OV-3

Measured: GI50

CN(C)CCC[N+]1=Nc2cccc3cccc(c23)N1
inactive: NCI-H226 > 100 µM | U-251 60 µM | SR 16.9 µM | COLO 205 > 10 µM | M14 21.1 µM | RPMI-8226 22.8 µM | UO-31 96.4 µM | A498 27.4 µM | OVCAR-5 > 100 µM | HOP-62 > 100 µM | CCRF-CEM 29.9 µM | XF498 > 100 µM | EKVX > 100 µM | SNB-75 > 100 µM | NCI-H460 35.6 µM | A549 > 100 µM | SK-MEL-28 56.2 µM | SW-620 10.4 µM | SK-OV-3 > 100 µM

C/C(=N/NC(N)=S)C(CN(C)C)C(C1=C(O)c2ccccc2OC1)c1ccccc1 (stereo not given)
inactive: NCI-H226 > 100 µM | U-251 > 100 µM | SR > 100 µM | COLO 205 > 100 µM | M14 > 100 µM | RPMI-8226 > 100 µM | UO-31 > 100 µM | A498 > 100 µM | OVCAR-5 > 100 µM | HOP-62 > 100 µM | CCRF-CEM > 100 µM | XF498 > 100 µM | EKVX > 100 µM | SNB-75 > 100 µM | NCI-H460 > 100 µM | A549 > 100 µM | SK-MEL-28 > 100 µM | SW-620 > 100 µM | SK-OV-3 > 100 µM

Cc1c(C(=O)C/C(=N\O)C(=O)Nc2cc(Cl)c(Cl)cc2Cl)[n+]([O-])c2ccccc2[n+]1[O-]
inactive: NCI-H226 17 µM | U-251 11 µM | SR 24.2 µM | COLO 205 2.92 µM | M14 4.5 µM | RPMI-8226 9.33 µM | UO-31 24.3 µM | A498 19.9 µM | OVCAR-5 24.4 µM | HOP-62 23.3 µM | CCRF-CEM 32.7 µM | XF498 25.9 µM | EKVX 22.9 µM | SNB-75 33.2 µM | NCI-H460 12.8 µM | A549 25.6 µM | SK-MEL-28 22.4 µM | SW-620 2.9 µM | SK-OV-3 43.7 µM

CC/N=C(/C#N)NCC
inactive: NCI-H226 > 100 µM | U-251 96.4 µM | SR > 100 µM | COLO 205 99.3 µM | M14 > 100 µM | RPMI-8226 30.4 µM | UO-31 > 100 µM | A498 > 100 µM | OVCAR-5 > 100 µM | HOP-62 > 100 µM | CCRF-CEM 75.2 µM | XF498 > 100 µM | EKVX > 100 µM | SNB-75 > 100 µM | NCI-H460 > 100 µM | A549 > 100 µM | SK-MEL-28 > 100 µM | SW-620 18.7 µM | SK-OV-3 > 100 µM

COc1ccc(N2C(=O)C3c4[nH]c5ccc(OC)cc5c4C4CCC(C(C)(C)C)CC4C3C2=O)cc1 (stereo not given)
inactive: NCI-H226 30.5 µM | U-251 17.5 µM | SR 17.4 µM | COLO 205 12.3 µM | M14 19.9 µM | RPMI-8226 57.1 µM | UO-31 > 100 µM | A498 19.6 µM | OVCAR-5 > 100 µM | HOP-62 16 µM | CCRF-CEM 58.6 µM | XF498 56.2 µM | EKVX 24.7 µM | SNB-75 12.3 µM | NCI-H460 16.6 µM | A549 26.7 µM | SK-MEL-28 23.2 µM | SW-620 93.5 µM | SK-OV-3 15.2 µM
